In PubChem BioAssay (NCI):
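96-well plates; 48 h exposure; 5 concentrations. Endpoints by linear interpolation between flanking doses. Not reached: highest tested concentration assigned. At the TGI there is no net growth.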

How the values were obtained:
Assay in all cases: NCI tumour cell line growth inhibition, 48 h
[1] = tested on: 786-0 renal
[2] = tested on: A498 renal
[3] = tested on: A549 NSCLC
[4] = tested on: ACHN renal
[5] = tested on: BT-549 breast
[6] = tested on: CAKI-1 renal
[7] = tested on: CCRF-CEM leukemia
[8] = tested on: COLO 205 colon
[9] = tested on: DU-145 prostate
[10] = tested on: EKVX NSCLC
[11] = tested on: HCC-2998 colon
[12] = tested on: HCT-116 colon
[13] = tested on: HCT-15 colon
[14] = tested on: HL-60(TB) leukemia
[15] = tested on: HOP-62 NSCLC
[16] = tested on: HOP-92 NSCLC
[17] = tested on: HT29 colon
[18] = tested on: IGROV1 ovarian
[19] = tested on: K-562 leukemia
[20] = tested on: KM12 colon
[21] = tested on: LOX IMVI melanoma
[22] = tested on: M14 melanoma
[23] = tested on: MALME-3M melanoma
[24] = tested on: MCF7 breast
[25] = tested on: MDA-MB-231 breast
[26] = tested on: MDA-MB-435
[27] = tested on: MDA-N
[28] = tested on: MOLT-4 leukemia
[29] = tested on: NCI-H226 lung
[30] = tested on: NCI-H23 lung
[31] = tested on: NCI-H460 lung
[32] = tested on: NCI/ADR-RES ovarian
[33] = tested on: OVCAR-3 ovarian
[34] = tested on: OVCAR-4 ovarian
[35] = tested on: OVCAR-5 ovarian
[36] = tested on: OVCAR-8 ovarian
[37] = tested on: PC-3 prostate
[38] = tested on: RPMI-8226 leukemia
[39] = tested on: RXF 393 renal
[40] = tested on: SF-268 CNS
[41] = tested on: SF-295 CNS
[42] = tested on: SF-539 CNS
[43] = tested on: SK-MEL-2 melanoma
[44] = tested on: SK-MEL-28 melanoma
[45] = tested on: SK-MEL-5 melanoma
[46] = tested on: SK-OV-3 ovarian
[47] = tested on: SN12C renal
[48] = tested on: SNB-19 CNS
[49] = tested on: SNB-75 CNS
[50] = tested on: SR leukemia
[51] = tested on: SW-620 colon
[52] = tested on: T-47D breast
[53] = tested on: TK-10 renal
[54] = tested on: U251 CNS
[55] = tested on: UACC-257 melanoma
[56] = tested on: UACC-62 melanoma
[57] = tested on: HS 578T breast
[58] = tested on: NCI-H522 lung
[59] = tested on: UO-31 renal

N#CC(=S)Nc1ccc(F)cc1
TGI [1]: > 100 µM
TGI [2]: 90.5 µM
TGI [3]: > 100 µM
TGI [4]: > 100 µM
TGI [5]: > 100 µM
TGI [6]: > 100 µM
TGI [7]: 54.9 µM
TGI [8]: > 100 µM
TGI [9]: > 100 µM
TGI [10]: > 100 µM
TGI [11]: > 100 µM
TGI [12]: > 100 µM
TGI [13]: > 100 µM
TGI [14]: 91.3 µM
TGI [15]: > 100 µM
TGI [16]: 68.3 µM
TGI [17]: > 100 µM
TGI [18]: > 100 µM
TGI [19]: > 100 µM
TGI [20]: > 100 µM
TGI [21]: > 100 µM
TGI [22]: > 100 µM
TGI [23]: > 100 µM
TGI [24]: > 100 µM
TGI [25]: > 100 µM
TGI [26]: > 100 µM
TGI [27]: > 100 µM
TGI [28]: > 100 µM
TGI [29]: > 100 µM
TGI [30]: > 100 µM
TGI [31]: > 100 µM
TGI [32]: > 100 µM
TGI [33]: > 100 µM
TGI [34]: > 100 µM
TGI [35]: > 100 µM
TGI [36]: > 100 µM
TGI [37]: > 100 µM
TGI [38]: 41.6 µM
TGI [39]: > 100 µM
TGI [40]: > 100 µM
TGI [41]: > 100 µM
TGI [42]: > 100 µM
TGI [43]: > 100 µM
TGI [44]: > 100 µM
TGI [45]: 75.8 µM
TGI [46]: > 100 µM
TGI [47]: > 100 µM
TGI [48]: > 100 µM
TGI [49]: > 100 µM
TGI [50]: > 100 µM
TGI [51]: > 100 µM
TGI [52]: > 100 µM
TGI [53]: > 100 µM
TGI [54]: > 100 µM
TGI [55]: > 100 µM
TGI [56]: > 100 µM

Clc1cccc(N=C/C=C/Nc2cccc(Cl)c2)c1
TGI [1]: 37.4 µM
TGI [2]: 49.7 µM
TGI [3]: 83.9 µM
TGI [5]: 33.2 µM
TGI [6]: 65.1 µM
TGI [8]: 29.8 µM
TGI [9]: 96.2 µM
TGI [11]: 25.2 µM
TGI [12]: 28.2 µM
TGI [13]: 37.7 µM
TGI [14]: 39.9 µM
TGI [15]: 30.7 µM
TGI [16]: > 100 µM
TGI [57]: > 100 µM
TGI [17]: 34 µM
TGI [18]: 39.3 µM
TGI [20]: 27.1 µM
TGI [21]: 20.6 µM
TGI [24]: 43.6 µM
TGI [25]: 29.4 µM
TGI [26]: 28.9 µM
TGI [27]: 26.8 µM
TGI [28]: 73.2 µM
TGI [30]: 54 µM
TGI [31]: 35.2 µM
TGI [58]: 29.3 µM
TGI [32]: 31.4 µM
TGI [33]: 45.4 µM
TGI [34]: > 100 µM
TGI [35]: 59.9 µM
TGI [36]: 38.9 µM
TGI [37]: 28.4 µM
TGI [38]: > 100 µM
TGI [39]: 52.5 µM
TGI [41]: 24.4 µM
TGI [42]: 34.2 µM
TGI [44]: 29.6 µM
TGI [45]: 44 µM
TGI [47]: 27 µM
TGI [50]: 62.3 µM
TGI [51]: 43.9 µM
TGI [53]: > 100 µM
TGI [54]: 30.3 µM
TGI [55]: 32.2 µM
TGI [59]: 34.2 µM
